Laboratory results as given in PubChem BioAssay (NCI).
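Growth conditions: 96-well plates. Treatment: test compound, 48 hours, 5 concentrations. Analysis: linear interpolation between bracketing concentrations; unreached endpoints set to highest concentration. TGI denotes the concentration required for complete inhibition of growth.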

What was measured:
Assay in all cases: growth of human tumour cells (NCI), 48 h
MDA-N = tested on: MDA-N
SK-MEL-28 melanoma = tested on: SK-MEL-28 melanoma
U251 CNS = tested on: U251 CNS
PC-3 prostate = tested on: PC-3 prostate
786-0 renal = tested on: 786-0 renal
T-47D breast = tested on: T-47D breast
NCI/ADR-RES ovarian = tested on: NCI/ADR-RES ovarian
HS 578T breast = tested on: HS 578T breast
K-562 leukemia = tested on: K-562 leukemia
MCF7 breast = tested on: MCF7 breast
OVCAR-8 ovarian = tested on: OVCAR-8 ovarian
SF-268 CNS = tested on: SF-268 CNS
M14 melanoma = tested on: M14 melanoma
MDA-MB-231 breast = tested on: MDA-MB-231 breast
HT29 colon = tested on: HT29 colon
NCI-H522 lung = tested on: NCI-H522 lung
MALME-3M melanoma = tested on: MALME-3M melanoma
HCC-2998 colon = tested on: HCC-2998 colon
SK-OV-3 ovarian = tested on: SK-OV-3 ovarian
OVCAR-3 ovarian = tested on: OVCAR-3 ovarian

Compound	TGI (MDA-N) [µM]	TGI (SK-MEL-28 melanoma) [µM]	TGI (U251 CNS) [µM]	TGI (PC-3 prostate) [µM]	TGI (786-0 renal) [µM]	TGI (T-47D breast) [µM]	TGI (NCI/ADR-RES ovarian) [µM]	TGI (HS 578T breast) [µM]	TGI (K-562 leukemia) [µM]	TGI (MCF7 breast) [µM]	TGI (OVCAR-8 ovarian) [µM]	TGI (SF-268 CNS) [µM]	TGI (M14 melanoma) [µM]	TGI (MDA-MB-231 breast) [µM]	TGI (HT29 colon) [µM]	TGI (NCI-H522 lung) [µM]	TGI (MALME-3M melanoma) [µM]	TGI (HCC-2998 colon) [µM]	TGI (SK-OV-3 ovarian) [µM]	TGI (OVCAR-3 ovarian) [µM]
C/C(=N\n1c(Cc2ccccc2)n[nH]c1=O)c1ccccc1	> 100	> 100	> 100	> 100	> 100	> 100	> 100	> 100	> 100	> 100	> 100	> 100	> 100	> 100	> 100	> 100	> 100	–	–	–
CC(C)(Oc1ccccc1)C(=O)Sc1c(-c2ccccc2)c(=O)n(-c2ccccc2)c(=S)n1-c1ccccc1	> 100	> 100	56.5	–	> 100	> 100	> 100	85.4	> 100	> 100	44.1	80.2	> 100	73.8	> 100	64.2	> 100	> 100	87.1	96.4
C1CSCCSCCSCCSC1	> 100	> 100	> 100	> 100	–	> 100	> 100	> 100	–	> 100	> 100	> 100	> 100	> 100	> 100	> 100	–	> 100	> 100	> 100
CCCCCCc1ccc(C(=O)NO)cc1	> 100	> 100	> 100	> 100	46.6	82.9	51.9	> 100	> 100	> 100	35.6	> 100	> 100	> 100	> 100	80.4	–	> 100	> 100	> 100
C=CC1CCC[N+]1(CC(=O)OCC)Cc1ccccc1 (stereo not drawn)	> 100	> 100	> 100	> 100	> 100	> 100	> 100	–	> 100	> 100	> 100	> 100	> 100	> 100	> 100	–	> 100	> 100	> 100	> 100
COc1ccc2nccc(SCC(=O)O)c2c1	> 100	> 100	> 100	> 100	> 100	> 100	> 100	> 100	> 100	–	> 100	> 100	> 100	> 100	> 100	> 100	–	–	–	> 100
c1ccc(N=C(Nc2ccccc2)N2CCCC2)cc1	> 100	> 100	> 100	> 100	> 100	> 100	> 100	> 100	> 100	> 100	> 100	> 100	> 100	–	> 100	> 100	> 100	–	> 100	> 100
COc1cccc2c1CCc1cc3c(N)nc(N)nc3nc1-2	18.1	11	> 38.3	18.3	6.13	> 67.7	46.7	–	> 21.4	47.9	21.7	42.4	20.9	15.9	17.3	10.8	10.3	5.78	40.3	16
CN(C)CCCNc1ccc2c(=O)n(CCN(C)C)c(=O)n3c4ccccc4c(=O)c1c23	0.312	2.57	2.15	1.81	0.752	13.7	4.02	15.7	–	0.565	3.59	11.8	1.59	0.496	0.907	0.385	3.99	0.267	4.9	3.35
Cc1c(CCN2CCOCC2)c(N2CCOCC2)n2c(nc3ccccc32)c1C#N	> 10	> 10	> 10	> 10	> 10	> 10	> 10	> 10	> 10	> 10	> 10	> 10	> 10	> 10	> 10	–	> 10	–	> 10	> 10
O=C1/C(=C/c2ccc(OC(=O)c3ccccc3)cc2)CCC/C1=C\c1ccc(OC(=O)c2ccccc2)cc1	> 100	> 100	> 100	> 100	> 100	> 100	> 100	> 100	–	> 100	> 100	> 100	> 100	> 100	> 100	> 100	–	> 100	–	> 100
CCCCCCCCCCCCN1[C@H]2CCC[C@H]2C(O)[C@@H]2CCC[C@@H]21 (stereo partly drawn)	> 100	> 100	> 100	> 100	> 100	88.2	> 100	> 100	> 100	–	> 100	> 100	> 100	> 100	> 100	–	–	> 100	> 100	> 100
CC(O)c1cc2c(s1)C(=O)c1ccsc1C2=O (stereo not drawn)	0.0275	0.0328	0.415	0.158	2.83	1.42	0.743	0.566	0.412	0.32	1.01	0.679	0.241	0.624	–	0.381	0.0449	0.576	5.46	0.169
